PMC4155405 (Nature communications, 2014)
Where two headings read alike, the source gives them in different places.

How the values were obtained:
in vitro = details: dog
[1] = system: recombinant Wuhan95 (H3N2) PB1-V43I virus; assay type: cell-based, influenza A virus A/Wuhan/359/95 (H3N2)
[2] = system: recombinant virus Wuhan95 (H3N2); assay type: cell-based, influenza A virus A/Wuhan/359/95 (H3N2)
[3] = system: Wuhan95 (H3N2) PB1-V43I virus; assay type: cell-based, influenza A virus A/Wuhan/359/95 (H3N2)
[4] = system: Wuhan95 (H3N2) wild-type virus; assay type: cell-based, influenza A virus A/Wuhan/359/95 (H3N2)

Nc1nc2c(ncn2[C@@H]2O[C@H](CO)[C@@H](O)[C@H]2O)c(=O)[nH]1 [guanosine]
CC50 (in vitro): 122 ± 0.11 µM

NC(=O)c1ncn([C@@H]2O[C@H](CO)[C@@H](O)[C@H]2O)n1 [ribavirin, 1-[(2R,3R,4S,5R)-3,4-dihydroxy-5-(hydroxymethyl)oxolan-2-yl]-1H-1,2,4-triazole-3-carboxamide]
fold higher virus titre of PB1-V43I virus compared to wild-type recombinant Wuhan95 virus [1]: 10.8 fold
EC50 ([1]; read-out: EC50 (ribavirin, virus titre in MDCK cells)): 73.5 µM
genomic mutation frequency [2]: 15.74 per 10^4 nucleotide sequenced
CC50 (in vitro): 352 ± 0.04 µM
mutational frequency in the HA gene [3]: 4.08 mutations per 10^4 nucleotides
fold higher mutational frequency of wild-type virus than PB1-V43I virus [4]: 1.36 fold
mutational frequency in the HA gene [4]: 5.53 mutations per 10^4 nucleotides

NC(=O)c1nc(F)c[nH]c1=O [favipiravir]
fold increase in EC50, PB1-V43I mutant versus wild-type H3N2 virus [1]: 2.24 fold
EC50 ([1]; read-out: EC50 (favipiravir, virus titre in MDCK cells)): 24.6 µM
